System: CCR2
Assay: In vitro assay, TNF-α stimulated CCR2 expression in THP-1 cells (quantitative PCR)
Type: cell-based, human
Conditions: THP-1 cells treated with TNF-α
Text: In the following study, the activity of cerivastatin and other statins, including simvastatin, lovastatin and atorvastatin, was similarly assessed using the human monocytic cell line THP-1. The THP-1 cells were similarly seeded by preparing a solution of THP-1 cells at 6×10^5 cells/ml and loading the solution of THP-1 cells onto a cell culture plate. The in vitro assay included six (6) treatment groups, including one (1) control group consisting of untreated THP-1 cells, one (1) positive control group consisting of THP-1 cells treated with tumor necrosis factor alpha (TNF-α) alone, four (4) treatment groups consisting of THP-1 cells treated with TNF-α and cerivastatin, TNF-α and simvastatin, TNF-α and lovastatin and TNF-α and atorvastatin. In this study, the THP-1 cells were treated with TNF-α to stimulate the production of CCR2. Each of the six (6) THP-1 cell samples were harvested and collected in a sealable vial and centrifuged to separate the liquid media from the THP-1 cells. The THP-1 cells were then collected and used for RNA extraction and quantitative PCR.

Compound	expression of CCR2
CC(C)c1c(C(=O)Nc2ccccc2)c(-c2ccccc2)c(-c2ccc(F)cc2)n1CC[C@@H](O)C[C@@H](O)CC(=O)O [atorvastatin]	did not, however, restrict CCR2 expression at levels comparable to cerivastatin
CC[C@H](C)C(=O)O[C@H]1C[C@@H](C)C=C2C=C[C@H](C)[C@H](CC[C@@H]3C[C@@H](O)CC(=O)O3)[C@H]21 [lovastatin]	did not, however, restrict CCR2 expression at levels comparable to cerivastatin
